Measured values as given in patent US11319303B2 (WIGEN BIOMEDICINE TECHNOLOGY (SHANGHAI) CO., LTD., priority 2017, dated 2022).
Where a name gives a salt, the structure may show the parent alone. Read-outs that look alike come from different tables or passages of the source.

Target: LC3B (Homo sapiens, UniProt Q9GZQ8)
Assay: Fluorescence Polarization (FP) Assay: displacement of FITC-labeled peptide from GST-LC3B
Assay type: binding
Method: The compounds of the present invention for regulating the autophagy-related protein LC3B were tested by Fluorescence Polarization (FP) Assay.
Fluorescence Polarization (FP) Assay Test

[1] = Fluorescence Polarization assay, GST-LC3B 180 nM, FITC-labeled peptide 18 nM, 25° C., read-out: IC50

SMILES	IC50 [1]	IC50
O=C1CC(C(=O)N2CCOCC2)CC(=O)C1=CNCCN1CCN(CCO)CC1 (stereo not shown) [Compound 106, 2-(((2-(4-(2-hydroxyethyl)piperazin-1-yl)ethyl)amino)methylene)-5-(morpholine-4-carbonyl)cyclohexane-1,3-dione]	100 to 1000 µM	
CC(=O)OCC(=O)C1=C(O)CC(c2ccccc2)CC1=O (stereo not shown) [Compound 111, 2-(5-hydroxy-3-oxo-1,2,3,6-tetrahydro-[1,1′ -biphenyl]-4-yl)-2-oxoethyl acetate]	100 to 1000 µM	
O=C(CO)C1C(=O)CC(c2ccccc2)CC1=O (stereo not shown) [Compound 112, 2-(hydroacetyl)-5-pheyl-cyclohexane-1,3-dione]	15 to 100 µM	
O=C1CC([C@H]2O[C@@H](n3cnc4c(N5CCOCC5)ncnc43)[C@H](O)[C@@H]2O)CC(=O)C1=CNCCN1CCN(CCO)CC1 (stereo partly drawn) [Compound 114, 5-((2R, 3S, 4R, 5R)-3,4-dihydroxy-5-(6-morpholino-9H-purin-9-yl)tetrahydrofuran-2-yl)-2-(((2-(4-(2-hydroxyethyl)piperazin-1-yl)ethyl)amino)methylene)cyclohexane-1,3-dione]	100 to 1000 µM	
CN(C)CCNC=C1C(=O)CC(c2ccccc2)CC1=O (stereo not shown) [Compound 119, 2-(((2-(dimethylamino)ethyl)amino)methylene)-5-phenylcyclo-hexane-1,3-dione]	< 3 µM	
CCN(CC)CCNC=C1C(=O)CC(c2ccccc2)CC1=O (stereo not shown) [Compound 120, 2-(((2-(diethylamino)ethyl)amino)methylene)-5-phenylcyclo-hexane-1,3-dione]	< 3 µM	
C[C@H](NC=C1C(=O)CC(c2ccccc2)CC1=O)C(=O)O (stereo partly drawn) [Compound 121, ((2,6-dioxo-4-phenylcyclo-hexylidene)methyl)-L-alanine]	15 to 100 µM	
C[C@H](NC=C1C(=O)CC(c2ccccc2)CC1=O)C(=O)OCc1ccccc1 (stereo partly drawn) [Compound 122, benzyl ((2,6-dioxo-4-phenylcyclo-hexylidene)methyl)-L-alaninate]	100 to 1000 µM	
O=C1CC(c2ccccc2)CC(=O)C1=CN[C@@H](Cc1ccccc1)C(=O)O (stereo partly shown) [Compound 123, ((2,6-dioxo-4-phenylcyclo-hexylidene)methyl) phenylalanine]	100 to 1000 µM	
CCOC(=O)[C@H](Cc1ccccc1)NC=C1C(=O)CC(c2ccccc2)CC1=O (stereo partly shown) [Compound 124, (l)-ethyl ((2,6-dioxo-4-phenylcyclo-hexylidene)methyl) phenylalaninate]	100 to 1000 µM	
O=C1CC(c2ccccc2)CC(=O)C1=CN[C@@H](Cc1ccccc1)C(=O)OCc1ccccc1 (stereo partly drawn) [Compound 125, benzyl ((2,6-dioxo-4-phenylcyclo-hexylidene)methyl)-L-phenylalaninate]	100 to 1000 µM	
O=C1CC(c2ccccc2)CC(=O)C1=CN[C@@H](Cc1c[nH]cn1)C(=O)O (stereo partly drawn) [Compound 126, ((2,6-dioxo-4-phenylcyclo-hexylidene)methyl)-L-histidine]	15 to 100 µM	
COC(=O)C(CCSC)NC=C1C(=O)CC(c2ccccc2)CC1=O (stereo not shown) [Compound 127, methyl ((2,6-dioxo-4-phenylcyclo-hexylidene)methyl) methioninate]	15 to 100 µM	
COCCNC=C1C(=O)CC(c2ccccc2)CC1=O (stereo not shown) [Compound 128, 2-(((2-methoxyethyl)amino)methylene)-5-phenylcyclohexane-1,3-dione]	100 to 1000 µM	
COC(=O)CNC=C1C(=O)CC(c2ccccc2)CC1=O (stereo not shown) [Compound 129, methyl ((2,6-dioxo-4-phenylcyclo-hexylidene)methyl)glycinate]	15 to 100 µM	
O=C(O)CCCNC=C1C(=O)CC(c2ccccc2)CC1=O (stereo not shown) [Compound 131, 4-(((2,6-dioxo-4-phenylcyclo-hexylidene)methyl)amino) butanoic acid]	15 to 100 µM	
O=C1CC(c2ccccc2)CC(=O)C1=CNCCCCl (stereo not shown) [Compound 133, 2-(((3-chloropropyl)amino)methylene)-5-phenylcyclohexane-1,3-dione]	100 to 1000 µM	
O=C1CC(c2ccccc2)CC(=O)C1=CNCCc1c[nH]c2ccccc12 (stereo not shown) [Compound 135, 2-(((2-(1H-indol-3-yl)ethyl)amino)methylene)-5-phenylcyclo-hexane-1,3-dione]	100 to 1000 µM	
O=C1CC(c2ccccc2)CC(=O)C1=CNC1CCC(O)CC1 (stereo not shown) [Compound 136, 2-(((4-hydroxycyclohexyl)amino)methylene)-5-phenylcyclohexane-1,3-dione]	100 to 1000 µM	
O=C1CC(c2ccccc2)CC(=O)C1=CNC1CCSC1=O (stereo not shown) [Compound 137, 2-(((2-oxotetrahydro-thiophen-3-yl)amino)methylene)-5-phenylcyclohexane-1,3-dione]		3 to 15 µM
O=C1CC(c2ccccc2)CC(=O)C1=CNC1CCNCC1 (stereo not shown) [Compound 140, 5-phenyl-2-((piperidin-4-ylamino)methylene) cyclohexane-1,3-dione hydrochloride]	15 to 100 µM	
O=C1CC(c2ccccc2)CC(=O)C1=CNC1CCCNC1 (stereo not shown) [Compound 141, 5-phenyl-2-((piperidin-3-ylamino)methylene) cyclohexane-1,3-dione hydrochloride]	3 to 15 µM	
CN1CCC(NC=C2C(=O)CC(c3ccccc3)CC2=O)CC1 (stereo not shown) [Compound 142, 2-(((1-methylpiperidin-4-yl)amino)methylene)-5-phenylcyclohexane-1,3-dione]	15 to 100 µM	
C=CCNC=C1C(=O)CC(c2ccccc2)CC1=O (stereo not shown) [Compound 143, 2-((allylamino)methylene)-5-phenylcyclo-hexane-1,3-dione]	15 to 100 µM	
COc1ccc(CNC=C2C(=O)CC(c3ccccc3)CC2=O)cc1 (stereo not shown) [Compound 145, 2-(((4-methoxybenzyl)amino)methylene)-5-phenylcyclo-hexane-1,3-dione]	100 to 1000 µM	
COc1ccc(NC=C2C(=O)CC(c3ccccc3)CC2=O)cn1 (stereo not shown) [Compound 147, 2-(((6-methoxypyridin-3-yl)amino)methylene)-5-phenylcyclo-hexane-1,3-dione]	15 to 100 µM	
O=C1CC(c2ccccc2)CC(=O)C1=CNc1nc(C(=O)O)cs1 (stereo not shown) [Compound 148, 2-(((2,6-dioxo-4-phenylcyclo-hexylidene)methyl)amino) thiazole-4-carboxylic acid]	< 3 µM	
O=C1CC(c2ccccc2)CC(=O)C1=CNc1ncc([N+](=O)[O-])s1 (stereo not shown) [Compound 150, 2-(((5-nitrothiazol-2-yl)amino)methylene)-5-phenylcyclohexane-1,3-dione]	< 3 µM	

Further lines, with some results ahead:

IC50 [1]	SMILES	IC50
100 to 1000 µM	O=C1CCN(c2ccccc2)C(=O)/C1=C\NCCN1CCN(CCO)CC1 [Compound 99, 3-(((2-(4-(2-hydroxyethyl)piperazin-1-yl)ethyl)amino)methylene)-1-phenylpiperidine-2,4-dione]	
15 to 100 µM	O=C1CCC(c2ccc(F)cc2)C(=O)C1=CNCCN1CCN(CCO)CC1 (stereo not shown) [Compound 100, 4-(4-fluorophenyl)-2-(((2-(4-(2-hydroxyethyl)piperazin-1-yl)ethyl)amino)methylene)cyclohexane-1,3-dione]	
15 to 100 µM	O=C1C(=CNCCN2CCN(CCO)CC2)C(=O)C(c2ccccc2)CC1Cc1ccccc1 (stereo not shown) [Compound 101, 4-benzyl-2-(((2-(4-(2-hydroxyethyl)piperazin-1-yl)ethyl)amino)methylene)-6-phenylcyclohexane-1,3-dione]	
15 to 100 µM	COc1ccc(CN2CC(=O)C(=CNCCN3CCN(CCO)CC3)C(=O)C2)cc1 [Compound 102, 4-(((2-(4-(2-hydroxyethyl)piperazin-1-yl)ethyl)amino)methylene)-1-(4-methoxybenzyl)piperidine-3,5-dione]	
15 to 100 µM	O=C1CN(Cc2ccccc2)CC(=O)C1=CNCCN1CCN(CCO)CC1 [Compound 103, 1-benzyl-4-(((2-(4-(2-hydroxyethyl)piperazin-1-yl)ethyl)amino)methylene)-piperidine-3,5-dione]	
15 to 100 µM	O=C1CN(C(=O)c2ccccc2)CC(=O)C1=CNCCN1CCN(CCO)CC1 [Compound 104, 1-benzoyl-4-(((2-(4-(2-hydroxyethyl)piperazin-1-yl)ethyl)amino)methylene)-piperidine-3,5-dione]	
15 to 100 µM	O=C1Nc2ccccc2C(=O)/C1=C/NCCN1CCN(CCO)CC1 [Compound 107, 3-(((2-(4-(2-hydroxyethyl)piperazin-1-yl)ethyl)amino)methylene)quinoline-2,4(1H,3H)-dione]	
100 to 1000 µM	CC(NCCN1CCN(CCO)CC1)=C1C(=O)CC(c2ccccc2)CC1=O (stereo not shown) [Compound 108, 2-(1-((2-(4-(2-hydroxyethyl)piperazin-1-yl)ethyl)amino)ethylidene)-5-phenylcyclohexane-1,3-dione]	
100 to 1000 µM	O=C1CC(c2ccccc2)CC(=O)C1=C(NCCN1CCN(CCO)CC1)c1ccccc1 (stereo not shown) [Compound 110, 2-(((2-(4-(2-hydroxyethyl)piperazin-1-yl)ethyl)amino)(phenyl)methylene)-5-phenylcyclohexane-1,3-dione]	
100 to 1000 µM	O=C1CC2c3ccccc3CCC2C(=O)/C1=C\NCCN1CCN(CCO)CC1 (stereo not shown) [Compound 113, 2-(((2-(4-(2-hydroxyethyl)piperazin-1-yl)ethyl)amino)methylene)-4a,9,10,10a-tetrahydrophenanthrene-1,3(2H,4H)-dione]	
3 to 15 µM	O=C1CC(Cc2ccccc2)C(=O)/C1=C/NCCN1CCN(CCO)CC1 (stereo not shown) [Compound 115, 4-benzyl-2-(((2-(4-(2-hydroxyethyl)piperazin-1-yl)ethyl)amino)-methylene)cyclopentane-1,3-dione]	
< 3 µM	CC1C(=O)C(=CNCCN2CCN(CCO)CC2)C(=O)CC1c1ccccc1 (stereo not shown) [Compound 116, 2-(((2-(4-(2-hydroxyethyl)piperazin-1-yl)ethyl)amino)methylene)-4-methyl-5-phenylcyclohexane-1,3-dione]	
100 to 1000 µM	O=C1CC(c2ccccc2)CC(=O)C1=CNCCCCO (stereo not shown) [Compound 132, 2-(((4-hydroxybutyl)amino)methylene)-5-phenylcyclohexane-1,3-dione]	
100 to 1000 µM	O=C1CC(c2ccccc2)CC(=O)C1=CNCCOCCO (stereo not shown) [Compound 134, 2-(((2-(2-hydroxyethoxy)ethyl)amino)methylene)-5-phenylcyclohexane-1,3-dione]	
15 to 100 µM	O=C1Oc2ccccc2C(=O)C1=CNCCN1CCN(CCO)CC1 [Compound 155, 3-(((2-(4-(2-hydroxyethyl)piperazin-1-yl)ethyl)amino)methylene) chromanone-2,4-dione]	
